From US12378195B2, “Aminated psilocybin derivatives and methods of using” (Enveric Biosciences Canada Inc., priority 2021, dated 2025)

What was measured:
5-HT1A receptor = biological target: T1, 5-HT1A receptor (Homo sapiens, UniProt P08908); assay: cAMP-Glo luminescence assay in +5-HT1A cells (CHO-K1/5-HT1A/Gα15) with forskolin; assay type: cell-based; conditions: +5HT1A cell cultures, fixed (4 μM) forskolin, n=3; for luminescence (cAMP) trend with decreasing ligand dosage, 5-HT1A modulation: FIGS. 11J, 11K; for % cAMP levels with decreasing ligand dosage, 5-HT1A activity: FIGS. 11L, 11M
T1 construct: host or cells: CHO-K1 (stably expressing 5-HT1A and Gα15)
T1 sequence (P08908 1-422): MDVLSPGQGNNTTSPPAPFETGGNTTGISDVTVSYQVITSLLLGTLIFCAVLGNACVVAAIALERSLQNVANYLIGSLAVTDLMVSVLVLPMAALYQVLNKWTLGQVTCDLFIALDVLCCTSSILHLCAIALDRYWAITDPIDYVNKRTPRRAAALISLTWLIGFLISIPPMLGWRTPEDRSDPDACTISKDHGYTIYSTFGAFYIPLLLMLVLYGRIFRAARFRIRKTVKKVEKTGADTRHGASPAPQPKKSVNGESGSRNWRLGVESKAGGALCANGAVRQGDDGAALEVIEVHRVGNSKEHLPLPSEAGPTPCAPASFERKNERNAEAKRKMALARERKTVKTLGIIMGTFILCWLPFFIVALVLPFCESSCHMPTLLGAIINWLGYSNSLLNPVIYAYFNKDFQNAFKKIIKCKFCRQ
Text: CHO-K1/Gα15 (GenScript, M00257) (−5-HT1A) and CHO-K1/5-HT1A/Gα15 (GenScript, M00330) (+5-HT1A) cells lines were used. Briefly, CHO-K1/Gα15 is a control cell line that constitutively expresses Gα15 which is a promiscuous Gq protein. This control cell line lacks any transgene encoding 5-HT1A receptors, but still responds to forskolin; thus, cAMP response to forskolin should be the same regardless of whether or not 5-HT1A agonists are present. Conversely, CHO-K1/5-HT1A/Gα15 cells stably express 5-HT1A receptor in the CHO-K1 host background. […] In +5-HT1A cells, Gα15 may be recruited in place of Gαi/o, which could theoretically dampen cAMP response (Rojas and Fiedler 2016, Front Cell Neurosci 10: 272). […] In contrast, tryptophan is not known to activate, or modulate in any way, 5-HT1A receptors, and was thus used as a negative control. Cells were maintained in complete growth media as recommended by supplier (GenScript) which is constituted as follows: Ham's F12 Nutrient mix (HAM's F12, GIBCO #11765-047) with 10% fetal bovine serum (FBS) (Thermo Scientific #12483020), 200 μg/ml zeocin (Thermo Scientific #R25005) and/or 100 μg/ml hygromycin (Thermo Scientific #10687010). The cells were cultured in a humidified incubator with 37° C. and 5% CO2. Cells maintenance was carried out as recommended by the cell supplier. Briefly, vials with cells were removed from the liquid nitrogen and thawed quickly in 37° C. water bath. Just before the cells were completely thawed the vial's outside was decontaminated by 70% ethanol spray. The cell suspension was then retrieved from the vial and added to warm (37° C.) complete growth media, and centrifuged at 1,000 rpm for 5 minutes. The supernatant was discarded, and the cell pellet was then resuspended in another 10 ml of complete growth media, and added to the 10 cm cell culture dish (Greiner Bio-One #664160). The media was changed every third day until the cells were about 90% confluent. The ˜90% confluent cells were then split 10:1 for maintenance or used for experiment.
(§1) As 5-HT1A activation inhibits cAMP formation, the ability of test molecules to modulate 5-HT1A response was measured via changes in the levels of cAMP produced due to application of 4 μM forskolin. The change in intracellular cAMP levels due to the treatment of novel molecules was measured using cAMP-Glo Assay kit (Promega #V1501). […] Reduced ATP caused reduced conversion of luciferin to oxyluciferin, conferring diminished luminescence as the result of 5-HT1A activation. Conversely, enhanced luminescence was expected in cases where 5-HT1A receptor modulation—imparted by a test molecule—caused downstream increases in ATP, thus imparting enhanced conversion of luciferin to oxyluciferin.

[1] = system: CHO-K1/Gα15 (−5-HT1A) cells; assay: cAMP-Glo assay in control −5-HT1A cells (CHO-K1/Gα15) with forskolin; assay type: cell-based; conditions: −5HT1A cell cultures; fixed (4 μM) forskolin; n=3; FIGS. 11L, 11M
Text: CHO-K1/Gα15 (GenScript, M00257) (−5-HT1A) and CHO-K1/5-HT1A/Gα15 (GenScript, M00330) (+5-HT1A) cells lines were used. Briefly, CHO-K1/Gα15 is a control cell line that constitutively expresses Gα15 which is a promiscuous Gq protein. This control cell line lacks any transgene encoding 5-HT1A receptors, but still responds to forskolin; thus, cAMP response to forskolin should be the same regardless of whether or not 5-HT1A agonists are present. Conversely, CHO-K1/5-HT1A/Gα15 cells stably express 5-HT1A receptor in the CHO-K1 host background. […] In +5-HT1A cells, Gα15 may be recruited in place of Gαi/o, which could theoretically dampen cAMP response (Rojas and Fiedler 2016, Front Cell Neurosci 10: 272). […]
as §1

5-HT2A receptor = biological target: T2, 5-HT2A receptor (Homo sapiens, UniProt P28223); assay: [3H]ketanserin competition binding assay (Scintillation Proximity Assay); conditions: fixed (1 nM) [3H]ketanserin; membranes containing 5-HT2A; FIG. 11E
T2 construct: purchased PerkinElmer ES-313-M400UA
Text: Evaluation of drug binding is an essential step to characterization of all drug-target interactions (Fang 2012, Exp Opin Drug Discov 7:969). The binding affinity of a drug to a target is traditionally viewed as an acceptable surrogate of its in vivo efficacy (Núnez et al., 2012, Drug Disc Today 17: 10). Competition assays, also called displacement or modulation binding assays, are a common approach to measure activity of a ligand at a target receptor (Flanagan 2016, Methods Cell Biol 132: 191). In these assays, standard radioligands acting either as agonists or antagonists are ascribed to specific receptors. […] After incubation, the samples were read on a MicroBeta 2 Microplate Counter (Perkin Elmer). […] Equilibrium binding constants for ketanserin (Kd) were determined from saturation binding curves using the ‘one-site saturation binding analysis’ method of GraphPad PRISM software (Version 9.2.0). […] Ki values were calculated from the competition displacement data using the competitive binding analysis from GraphPad PRISM software. […] Specific binding in counts per minute (cpm) was calculated by subtracting non-specific binding from total binding. Specific binding (pmol/mg) was calculated from pmol of [^3H]ketanserin bound per mg of protein in the assay. The Kd was calculated by fitting the data with the one-site binding model of PRISM software (version 9.2.0).

T2 sequence (P28223 whole entry): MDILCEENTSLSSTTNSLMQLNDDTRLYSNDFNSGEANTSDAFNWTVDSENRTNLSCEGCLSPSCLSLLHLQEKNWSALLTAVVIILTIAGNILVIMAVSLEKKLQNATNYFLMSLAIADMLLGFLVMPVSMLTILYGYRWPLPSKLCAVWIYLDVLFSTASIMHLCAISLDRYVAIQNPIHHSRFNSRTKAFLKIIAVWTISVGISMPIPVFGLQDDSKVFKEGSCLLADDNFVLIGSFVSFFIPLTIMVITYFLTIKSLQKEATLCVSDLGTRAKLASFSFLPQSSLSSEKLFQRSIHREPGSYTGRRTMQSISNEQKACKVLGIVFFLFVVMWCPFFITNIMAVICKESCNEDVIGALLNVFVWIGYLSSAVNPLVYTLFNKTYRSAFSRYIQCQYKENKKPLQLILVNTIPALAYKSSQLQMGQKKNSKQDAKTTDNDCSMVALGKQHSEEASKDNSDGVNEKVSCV

Row | SMILES | luminescence (cAMP) trend with decreasing ligand dosage, 5-HT1A modulation (5-HT1A receptor) | trend of increasing % cAMP levels with decreasing ligand dosage [1] | % cAMP levels with decreasing ligand dosage, 5-HT1A activity (5-HT1A receptor) | competition binding curve at the 5-HT2A receptor (5-HT2A receptor)
1 | CN(C)CCc1c[nH]c2ccccc12 [DMT] | 5-HT1A activity |  |  | 
2 | COc1c(N)ccc2[nH]cc(CCN)c12 [compound (IX)] |  | not observed | 5-HT1A binding activity | 
3 | CN(C)CCc1c[nH]c2cccc(O)c12 [psilocin] |  |  |  | binding
4 | NCCc1c[nH]c2ccc(O)cc12 [serotonin] |  | not observed | 5-HT1A binding activity | 
5 | N[C@@H](Cc1c[nH]c2ccccc12)C(=O)O [tryptophan] | lack of 5-HT1A modulation |  |  | no binding
